| SMILES | melting point [°C] |
| --- | --- |
| Clc1cnc2c(-c3ccccc3)nc(-c3ccccc3)nc2c1 [Compound 4, 7-Chloro-2,4-diphenyl-pyrido[3,2-d]pyrimidine] | 120 to 121 |
| COc1ccc(-c2nc(-c3ccccc3)c3ncc(Cl)cc3n2)cc1 [Compound 5, 7-Chloro-2-(4-methoxyphenyl)-4-phenyl-pyrido[3,2-d]pyrimidine] | 193 to 194 |
| COc1cccc(-c2nc(-c3ccccc3)c3ncc(Cl)cc3n2)c1 [Compound 6, 7-Chloro-2-(3-methoxyphenyl)-4-phenyl-pyrido[3,2-d]pyrimidine] | 112 to 113 |
| COc1ccccc1-c1nc(-c2ccccc2)c2ncc(Cl)cc2n1 [Compound 7, 7-Chloro-2-(2-methoxyphenyl)-4-phenyl-pyrido[3,2-d]pyrimidine] | 116 to 117 |
| COc1ccc(-c2cnc3c(-c4ccccc4)nc(-c4cccc(OC)c4)nc3c2)cc1 [Compound 8, 2-(3-Methoxyphenyl)-7-(4-methoxyphenyl)-4-phenyl-pyrido[3,2-d]-pyrimidine] | 147 to 148 |
| COc1cccc(-c2nc(-c3ccccc3)c3ncc(-c4ccc(C(C)=O)cc4)cc3n2)c1 [Compound 9, 7-(4-Acetylphenyl)-2-(3-methoxyphenyl)-4-phenyl-pyrido[3,2-d]pyrimidine] | 133 to 134 |
| COc1cccc(-c2nc(-c3ccccc3)c3ncc(-c4ccco4)cc3n2)c1 [Compound 12, 7-(2-Furyl)-2-(3-methoxyphenyl)-4-phenyl-pyrido[3,2-d]pyrimidine] | 131 to 132 |
| COc1cccc(-c2nc(-c3ccccc3)c3ncc(-c4cccnc4)cc3n2)c1 [Compound 13, 2-(3-Methoxyphenyl)-4-phenyl-7-(3-pyridyl)-pyrido[3,2-d]pyrimidine] | 134 to 135 |
| COc1cccc(-c2nc(-c3ccccc3)c3ncc(-c4csc5ccccc45)cc3n2)c1 [Compound 14, 7-(3-Benzothienyl)-2-(3-methoxyphenyl)-4-phenyl-pyrido[3,2-d]pyrimidine] | 112 to 113 |
| COc1cccc(-c2nc(-c3ccccc3)c3ncc(-c4cccs4)cc3n2)c1 [Compound 15, 2-(3-Methoxyphenyl)-4-phenyl-7-(2-thienyl)-pyrido[3,2-d]pyrimidine] | 140 to 141 |
| Oc1cccc(-c2ncc3ncc(Cl)cc3n2)c1 [Compound 18, 7-Chloro-2-(3-hydroxyphenyl)-pyrido[3,2-d]pyrimidine] | 252 to 253 |
| Oc1ccccc1-c1ncc2ncc(Cl)cc2n1 [Compound 19, 7-Chloro-2-(2-hydroxyphenyl)-pyrido[3,2-d]pyrimidine] | 211 to 212 |
| Oc1ccc(-c2ncc3ncc(-c4ccc(S)cc4)cc3n2)cc1 [Compound 27, 2-(4-Hydroxyphenyl)-7-(4-mercaptophenyl)-pyrido[3,2-d]pyrimidine] | 222 to 223 |
| N#Cc1ccc(-c2cnc3cnc(-c4ccc(O)cc4)nc3c2)cc1 [Compound 28, 2-(4-Hydroxyphenyl)-7-(4-cyanophenyl)-pyrido[3,2-d]pyrimidine] | 313 to 314 |
| N#Cc1cccc(-c2cnc3cnc(-c4ccc(O)cc4)nc3c2)c1 [Compound 29, 2-(4-Hydroxyphenyl)-7-(3-cyanophenyl)-pyrido[3,2-d]pyrimidine] | > 268 |
| Oc1ccc(-c2cnc3cnc(-c4cccc(O)c4)nc3c2)cc1 [Compound 30, 2-(3-Hydroxyphenyl)-7-(4-hydroxyphenyl)-pyrido[3,2-d]pyrimidine] | > 268 |
| Oc1ccc(-c2cnc3cnc(-c4ccccc4O)nc3c2)cc1 [Compound 31, 2-(2-Hydroxyphenyl)-7-(4-hydroxyphenyl)-pyrido[3,2-d]pyrimidine] | > 268 |
| Oc1ccc(-c2ncc3ncc(-c4ccoc4)cc3n2)cc1 [Compound 36, 2-(4-Hydroxyphenyl)-7-(3-furyl)-pyrido[3,2-d]pyrimidine] | > 268 |
| O=Cc1ccc(-c2cnc3cnc(-c4ccc(O)cc4)nc3c2)cc1 [Compound 42, 2-(4-Hydroxyphenyl)-7-(4-formylphenyl)-pyrido[3,2-d]pyrimidine] | > 268 |
| COc1cc(O)ccc1-c1cnc2cnc(-c3ccc(O)cc3)nc2c1 [Compound 43, 2-(4-hydroxyphenyl)-7-(2-methoxy-4-hydroxyphenyl)-pyrido[3,2-d]pyrimidine] | 207 to 208 |
| O=Cc1cccc(-c2cnc3cnc(-c4ccc(O)cc4)nc3c2)c1 [Compound 44, 2-(4-Hydroxyphenyl)-7-(3-formylphenyl)-pyrido[3,2-d]pyrimidine] | 266 |

Other lines, results leading:

| melting point [°C] | SMILES |
| --- | --- |
| 232 | OCc1cccc(-c2cnc3cnc(-c4ccc(O)cc4)nc3c2)c1 [Compound 45, 2-(4-Hydroxyphenyl)-7-(3-hydroxymethylphenyl)-pyrido[3,2-d]pyrimidine] |
| > 268 | Oc1ccc(-c2ncc3ncc(Nc4ccncc4)cc3n2)cc1 [Compound 55, 2-(4-Hydroxyphenyl)-7-(4-pyridinylamino)-pyrido[3,2-d]pyrimidine] |
| > 268 | Oc1ccc(-c2ncc3ncc(Nc4ccccn4)cc3n2)cc1 [Compound 57, 2-(4-Hydroxyphenyl)-7-(2-pyridinylamino)-pyrido[3,2-d]pyrimidine] |
| 168 to 170 | Oc1ccc(Nc2cnc3cnc(-c4ccc(O)cc4)nc3c2)cc1 [Compound 58, 2-(4-Hydroxyphenyl)-7-(4-hydroxyphenylamino)-pyrido[3,2-d]pyrimidine] |
| > 268 | COCOc1ccc(-c2ncc3ncc(Cl)cc3n2)cc1 [Compound 64, 7-Chloro-2-(4-methoxymethoxy-phenyl)-pyrido[3,2-d]pyrimidine] |
| 232 | COCOc1ccc(-c2ncc3ncc(NC(=O)c4cccnc4)cc3n2)cc1 [Compound 65, N-[2-(4-Methoxymethoxy-phenyl)-pyrido[3,2-d]pyrimidin-7-yl]-nicotinamide] |
| 202 to 204 | COCOc1ccc(-c2ncc3ncc(N4CCCCC4=O)cc3n2)cc1 [Compound 66, 1-[2-(4-Methoxymethoxy-phenyl)-pyrido[3,2-d]pyrimidin-7-yl]-piperidin-2-one] |
| 200 to 202 | COCOc1ccc(-c2ncc3ncc(N4CCNCC4=O)cc3n2)cc1 [Compound 67, 1-[2-(4-Methoxymethoxy-phenyl)-pyrido[3,2-d]pyrimidin-7-yl]-piperazin-2-one] |
| 226 to 228 | O=C(Nc1cnc2cnc(-c3ccc(O)cc3)nc2c1)c1cccnc1 [Compound 68, N-[2-(4-Hydroxy-phenyl)-pyrido[3,2-d]pyrimidin-7-yl]nicotinamide] |
| 268 to 270 | O=C1CCCCN1c1cnc2cnc(-c3ccc(O)cc3)nc2c1 [Compound 69, 1-[2-(4-Hydroxy-phenyl)-pyrido[3,2-d]pyrimidin-7-yl]-piperidin-2-one] |
| > 268 | O=C1CNCCN1c1cnc2cnc(-c3ccc(O)cc3)nc2c1 [Compound 70, 1-[2-(4-Hydroxy-phenyl)-pyrido[3,2-d]pyrimidin-7-yl]-piperazin-2-one] |
| 230 to 232 | O=C(Nc1cnc2cnc(-c3ccc(O)cc3)nc2c1)c1ccncc1 [Compound 71, N-[2-(4-Hydroxy-phenyl)-pyrido[3,2-d]pyrimidin-7-yl]isonicotinamide] |
| > 268 | O=C1CCCN1c1cnc2cnc(-c3ccc(O)cc3)nc2c1 [Compound 72, 1-[2-(4-Hydroxy-phenyl)-pyrido[3,2-d]pyrimidin-7-yl]-pyrrolidin-2-one] |
| > 268 | COCOc1ccc(-c2ncc3ccc(-c4csc(CN5CCCCC5)c4)nc3n2)cc1 [Compound 75, 2-(4-Methoxymethoxy-phenyl)-7-(5-piperidin-1-ylmethyl-thiophen-3-yl)-pyrido[2,3-d]pyrimidine] |
| > 268 | COCOc1ccc(-c2ncc3ccc(-c4csc(CN5CCOCC5)c4)nc3n2)cc1 [Compound 76, 2-(4-Methoxymethoxy-phenyl)-7-(5-morpholin-4-ylmethyl-thiophen-3-yl)-pyrido[2,3-d]pyrimidine] |
| > 268 | COCOc1ccc(-c2ncc3ccc(-c4csc(CN5CCN(C)CC5)c4)nc3n2)cc1 [Compound 77, 2-(4-Methoxymethoxy-phenyl)-7-[5-(4-methyl-piperazin-1-ylmethyl)-thiophen-3-yl]-pyrido[2,3-d]pyrimidine] |
| > 268 | Oc1ccc(-c2ncc3ccc(-c4csc(CN5CCCCC5)c4)nc3n2)cc1 [Compound 78, 4-[7-(5-Piperidin-1-ylmethyl-thiophen-3-yl)-pyrido[2,3-d]pyrimidin-2-yl]-phenol] |
| > 268 | Oc1ccc(-c2ncc3ccc(-c4csc(CN5CCOCC5)c4)nc3n2)cc1 [Compound 79, 4-[7-(5-Morpholin-4-ylmethyl-thiophen-3-yl)-pyrido[2,3-d]pyrimidin-2-yl]-phenol] |
| 106 to 107 | OCCNc1nc(NCc2ccccc2)c2ncc(Cl)cc2n1 [Compound 82, 4-Benzylamino-7-chloro-2-(2-hydroxyethylamino)-pyrido[3,2-d]pyrimidine] |
| 202 to 203 | OCCNc1nc(NCc2ccccc2)c2ncc(Nc3ncncn3)cc2n1 [Compound 88, 4-Benzylamino-2-(2-hydroxyethylamino)-7-(1,3,5-triazinylamino)-pyrido[3,2-d]pyrimidine] |

— patent publication US20130109693A1, “DERIVATIVES OF PYRIDO [3,2-D] PYRIMIDINE, METHODS FOR PREPARATION THEREOF AND THERAPEUTIC USES THEREOF” (UNIVERSITE D'ORLEANS, priority 2010, published 2013)
